Experimental data taken from ChEMBL document CHEMBL4507289, “Data for DCP probe GSM1” (2021).

What was measured:
[1] = tested on: Tyrosine-protein kinase ABL1 (Homo sapiens), P00519 [F317I]; details: Compound concentration 1000.0 nM
[2] = target: Aurora kinase A (Homo sapiens) (UniProt O14965); details: Compound concentration 1000.0 nM
[3] = target: Calcium/calmodulin-dependent protein kinase type 1 (Homo sapiens) (UniProt Q14012); details: Compound concentration 1000.0 nM
[4] = target: Serine/threonine-protein kinase 17A (Homo sapiens) (UniProt Q9UEE5); details: Compound concentration 1000.0 nM
[5] = tested on: Epidermal growth factor receptor (Homo sapiens), P00533 [UNDEFINED MUTATION]; details: Compound concentration 1000.0 nM
[6] = target: Ephrin type-A receptor 8 (Homo sapiens) (UniProt P29322); details: Compound concentration 1000.0 nM
[7] = target: Ephrin type-B receptor 4 (Homo sapiens) (UniProt P54760); details: Compound concentration 1000.0 nM
[8] = target: Focal adhesion kinase 1 (Homo sapiens) (UniProt Q05397); details: Compound concentration 1000.0 nM
[9] = target: Fibroblast growth factor receptor 2 (Homo sapiens) (UniProt P21802); details: Compound concentration 1000.0 nM
[10] = tested on: Receptor-type tyrosine-protein kinase FLT3 (Homo sapiens), P36888 [UNDEFINED MUTATION]; details: Compound concentration 1000.0 nM
[11] = target: Rhodopsin kinase GRK1 (Homo sapiens) (UniProt Q15835); details: Compound concentration 1000.0 nM
[12] = target: Hormonally up-regulated neu tumor-associated kinase (Homo sapiens) (UniProt P57058); details: Compound concentration 1000.0 nM
[13] = target: Inhibitor of nuclear factor kappa-B kinase subunit epsilon (Homo sapiens) (UniProt Q14164); details: Compound concentration 1000.0 nM
[14] = target: Insulin receptor-related protein (Homo sapiens) (UniProt P14616); details: Compound concentration 1000.0 nM
[15] = target: Tyrosine-protein kinase JAK1 (Homo sapiens) (UniProt P23458); details: Compound concentration 1000.0 nM
[16] = target: Serine/threonine-protein kinase STK11 (Homo sapiens) (UniProt Q15831); details: Compound concentration 1000.0 nM
[17] = target: Mitogen-activated protein kinase kinase kinase 3 (Homo sapiens) (UniProt Q99759); details: Compound concentration 1000.0 nM
[18] = target: Mitogen-activated protein kinase kinase kinase kinase 5 (Homo sapiens) (UniProt Q9Y4K4); details: Compound concentration 1000.0 nM
[19] = target: MAP/microtubule affinity-regulating kinase 3 (Homo sapiens) (UniProt P27448); details: Compound concentration 1000.0 nM
[20] = target: Microtubule-associated serine/threonine-protein kinase 1 (Homo sapiens) (UniProt Q9Y2H9); details: Compound concentration 1000.0 nM
[21] = target: Dual specificity mitogen-activated protein kinase kinase 3 (Homo sapiens) (UniProt P46734); details: Compound concentration 1000.0 nM
[22] = target: Dual specificity mitogen-activated protein kinase kinase 4 (Homo sapiens) (UniProt P45985); details: Compound concentration 1000.0 nM
[23] = target: Misshapen-like kinase 1 (Homo sapiens) (UniProt Q8N4C8); details: Compound concentration 1000.0 nM
[24] = target: Mitogen-activated protein kinase kinase kinase 10 (Homo sapiens) (UniProt Q02779); details: Compound concentration 1000.0 nM
[25] = target: Myosin-IIIa (Homo sapiens) (UniProt Q8NEV4); details: Compound concentration 1000.0 nM
[26] = target: Serine/threonine-protein kinase Nek11 (Homo sapiens) (UniProt Q8NG66); details: Compound concentration 1000.0 nM
[27] = target: Serine/threonine-protein kinase Nek3 (Homo sapiens) (UniProt P51956); details: Compound concentration 1000.0 nM
[28] = target: Mitogen-activated protein kinase 12 (Homo sapiens) (UniProt P53778); details: Compound concentration 1000.0 nM
[29] = target: Cyclin-dependent kinase 18 (Homo sapiens) (UniProt Q07002); details: Compound concentration 1000.0 nM
[30] = target: 3-phosphoinositide-dependent protein kinase 1 (Homo sapiens) (UniProt O15530); details: Compound concentration 1000.0 nM
[31] = target: Cyclin-dependent kinase 14 (Homo sapiens) (UniProt O94921); details: Compound concentration 1000.0 nM
[32] = target: Phosphorylase b kinase gamma catalytic chain, skeletal muscle/heart isoform (Homo sapiens) (UniProt Q16816); details: Compound concentration 1000.0 nM
[33] = tested on: Phosphatidylinositol 4,5-bisphosphate 3-kinase catalytic subunit alpha isoform (Homo sapiens), P42336 [H1047L]; details: Compound concentration 1000.0 nM
[34] = target: Phosphatidylinositol 4,5-bisphosphate 3-kinase catalytic subunit beta isoform (Homo sapiens) (UniProt P42338); details: Compound concentration 1000.0 nM
[35] = target: Phosphatidylinositol 4,5-bisphosphate 3-kinase catalytic subunit gamma isoform (Homo sapiens) (UniProt P48736); details: Compound concentration 1000.0 nM
[36] = target: Serine/threonine-protein kinase pim-3 (Homo sapiens) (UniProt Q86V86); details: Compound concentration 1000.0 nM
[37] = target: cGMP-dependent protein kinase 2 (Homo sapiens) (UniProt Q13237); details: Compound concentration 1000.0 nM
[38] = target: Serine/threonine-protein kinase SIK3 (Homo sapiens) (UniProt Q9Y2K2); details: Compound concentration 1000.0 nM
[39] = target: Uncharacterized serine/threonine-protein kinase SBK3 (Homo sapiens) (UniProt P0C264); details: Compound concentration 1000.0 nM
[40] = target: Serine/threonine-protein kinase SIK2 (Homo sapiens) (UniProt Q9H0K1); details: Compound concentration 1000.0 nM
[41] = target: Serine/threonine-protein kinase 33 (Homo sapiens) (UniProt Q9BYT3); details: Compound concentration 1000.0 nM
[42] = target: Non-receptor tyrosine-protein kinase TYK2 (Homo sapiens) (UniProt P29597); details: Compound concentration 1000.0 nM
[43] = target: 5-hydroxytryptamine receptor 2A (Homo sapiens) (UniProt P28223); details: Compound concentration 10.0 uM
[44] = target: 5-hydroxytryptamine receptor 5A (Homo sapiens) (UniProt P47898); details: Compound concentration 10.0 uM
[45] = target: D(3) dopamine receptor (Homo sapiens) (UniProt P35462); details: Compound concentration 10.0 uM

Chain of Mitogen-activated protein kinase kinase kinase kinase 5 (Homo sapiens) (Q9Y4K4 whole entry, looked up): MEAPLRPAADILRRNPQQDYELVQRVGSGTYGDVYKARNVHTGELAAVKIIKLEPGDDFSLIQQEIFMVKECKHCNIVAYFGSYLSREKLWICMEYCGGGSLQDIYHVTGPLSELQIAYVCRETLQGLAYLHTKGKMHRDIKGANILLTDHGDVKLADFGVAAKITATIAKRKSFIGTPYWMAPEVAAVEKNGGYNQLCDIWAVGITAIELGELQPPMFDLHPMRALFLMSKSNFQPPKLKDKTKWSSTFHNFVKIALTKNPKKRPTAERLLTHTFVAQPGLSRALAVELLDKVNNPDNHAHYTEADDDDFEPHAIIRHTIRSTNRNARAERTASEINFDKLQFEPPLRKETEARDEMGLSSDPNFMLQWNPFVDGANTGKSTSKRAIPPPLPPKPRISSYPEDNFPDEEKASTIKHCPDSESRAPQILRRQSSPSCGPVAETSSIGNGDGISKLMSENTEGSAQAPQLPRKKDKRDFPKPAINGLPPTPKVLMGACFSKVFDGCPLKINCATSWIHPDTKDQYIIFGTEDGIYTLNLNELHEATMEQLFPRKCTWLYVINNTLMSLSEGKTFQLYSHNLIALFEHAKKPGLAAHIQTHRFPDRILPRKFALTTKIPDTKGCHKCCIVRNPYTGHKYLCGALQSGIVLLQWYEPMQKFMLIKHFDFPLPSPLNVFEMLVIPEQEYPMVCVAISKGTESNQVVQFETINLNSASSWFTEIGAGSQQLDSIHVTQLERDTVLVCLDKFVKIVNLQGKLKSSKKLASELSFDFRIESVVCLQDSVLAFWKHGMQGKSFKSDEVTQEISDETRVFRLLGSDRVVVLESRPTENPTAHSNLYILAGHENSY
Chain of Phosphatidylinositol 4,5-bisphosphate 3-kinase catalytic subunit beta isoform (Homo sapiens) (P42338 whole entry, looked up, canonical isoform): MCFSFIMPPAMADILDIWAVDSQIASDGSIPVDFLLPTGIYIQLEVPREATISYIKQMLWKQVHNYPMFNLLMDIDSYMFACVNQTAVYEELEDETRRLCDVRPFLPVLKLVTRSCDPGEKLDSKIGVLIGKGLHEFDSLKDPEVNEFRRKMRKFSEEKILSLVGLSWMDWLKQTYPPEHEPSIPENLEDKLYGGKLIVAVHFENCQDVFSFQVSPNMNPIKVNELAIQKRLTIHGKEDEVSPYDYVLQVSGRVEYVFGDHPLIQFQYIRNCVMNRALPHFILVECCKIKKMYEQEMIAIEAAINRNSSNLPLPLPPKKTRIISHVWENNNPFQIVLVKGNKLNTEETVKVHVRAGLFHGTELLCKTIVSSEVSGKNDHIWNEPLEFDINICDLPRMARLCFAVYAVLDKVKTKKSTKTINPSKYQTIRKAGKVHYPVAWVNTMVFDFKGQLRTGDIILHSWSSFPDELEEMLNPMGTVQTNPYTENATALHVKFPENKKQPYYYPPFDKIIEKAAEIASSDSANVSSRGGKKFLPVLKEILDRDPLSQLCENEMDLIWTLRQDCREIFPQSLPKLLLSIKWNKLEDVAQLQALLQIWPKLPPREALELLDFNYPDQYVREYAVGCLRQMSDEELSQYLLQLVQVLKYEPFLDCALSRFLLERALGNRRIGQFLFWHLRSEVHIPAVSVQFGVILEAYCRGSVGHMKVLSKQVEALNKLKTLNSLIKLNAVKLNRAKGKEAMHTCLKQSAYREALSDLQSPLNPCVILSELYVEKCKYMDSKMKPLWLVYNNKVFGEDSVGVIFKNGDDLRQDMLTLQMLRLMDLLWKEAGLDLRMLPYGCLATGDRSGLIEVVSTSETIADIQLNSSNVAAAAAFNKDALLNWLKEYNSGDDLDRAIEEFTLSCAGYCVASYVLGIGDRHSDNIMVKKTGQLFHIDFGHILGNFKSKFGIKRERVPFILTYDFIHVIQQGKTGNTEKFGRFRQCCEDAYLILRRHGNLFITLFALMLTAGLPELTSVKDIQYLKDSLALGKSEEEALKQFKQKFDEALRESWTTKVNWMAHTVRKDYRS
Chain of Insulin receptor-related protein (Homo sapiens) (P14616 27-742 limits assumed): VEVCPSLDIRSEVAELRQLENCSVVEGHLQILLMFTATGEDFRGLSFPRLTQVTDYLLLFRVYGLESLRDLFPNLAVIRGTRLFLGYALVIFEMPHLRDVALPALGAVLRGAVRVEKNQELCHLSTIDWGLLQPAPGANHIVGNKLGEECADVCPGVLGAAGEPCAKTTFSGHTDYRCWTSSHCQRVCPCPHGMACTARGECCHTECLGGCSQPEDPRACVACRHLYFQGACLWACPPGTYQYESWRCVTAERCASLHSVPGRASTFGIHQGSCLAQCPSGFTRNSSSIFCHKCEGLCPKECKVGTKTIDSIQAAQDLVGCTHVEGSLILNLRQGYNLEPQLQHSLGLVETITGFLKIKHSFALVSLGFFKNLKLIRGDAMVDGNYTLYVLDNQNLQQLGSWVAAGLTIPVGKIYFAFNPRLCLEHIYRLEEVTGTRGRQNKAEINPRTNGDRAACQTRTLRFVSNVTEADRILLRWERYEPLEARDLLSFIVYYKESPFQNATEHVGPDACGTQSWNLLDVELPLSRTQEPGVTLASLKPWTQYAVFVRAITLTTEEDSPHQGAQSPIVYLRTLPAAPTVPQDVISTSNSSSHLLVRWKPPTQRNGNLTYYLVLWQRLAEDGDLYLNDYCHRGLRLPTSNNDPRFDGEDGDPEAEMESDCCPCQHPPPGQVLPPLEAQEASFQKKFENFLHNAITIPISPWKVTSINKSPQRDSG
Chain of Insulin receptor-related protein (Homo sapiens) (P14616 747-1297 limits assumed): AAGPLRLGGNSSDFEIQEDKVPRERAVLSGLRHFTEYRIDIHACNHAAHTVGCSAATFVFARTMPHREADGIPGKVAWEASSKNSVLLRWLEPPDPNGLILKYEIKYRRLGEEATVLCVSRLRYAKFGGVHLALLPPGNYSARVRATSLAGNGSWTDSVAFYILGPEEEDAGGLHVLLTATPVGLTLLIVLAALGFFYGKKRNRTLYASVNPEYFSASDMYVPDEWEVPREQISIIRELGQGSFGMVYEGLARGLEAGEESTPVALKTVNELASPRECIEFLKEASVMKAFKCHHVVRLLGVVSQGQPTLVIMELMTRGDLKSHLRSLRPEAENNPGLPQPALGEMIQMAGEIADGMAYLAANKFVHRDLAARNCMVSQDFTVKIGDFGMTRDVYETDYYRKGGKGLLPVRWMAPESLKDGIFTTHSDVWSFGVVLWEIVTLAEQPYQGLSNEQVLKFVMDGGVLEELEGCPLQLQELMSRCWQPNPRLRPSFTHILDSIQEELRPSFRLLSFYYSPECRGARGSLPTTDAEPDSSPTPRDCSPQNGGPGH
Chain of Ephrin type-A receptor 8 (Homo sapiens) (P29322 whole entry): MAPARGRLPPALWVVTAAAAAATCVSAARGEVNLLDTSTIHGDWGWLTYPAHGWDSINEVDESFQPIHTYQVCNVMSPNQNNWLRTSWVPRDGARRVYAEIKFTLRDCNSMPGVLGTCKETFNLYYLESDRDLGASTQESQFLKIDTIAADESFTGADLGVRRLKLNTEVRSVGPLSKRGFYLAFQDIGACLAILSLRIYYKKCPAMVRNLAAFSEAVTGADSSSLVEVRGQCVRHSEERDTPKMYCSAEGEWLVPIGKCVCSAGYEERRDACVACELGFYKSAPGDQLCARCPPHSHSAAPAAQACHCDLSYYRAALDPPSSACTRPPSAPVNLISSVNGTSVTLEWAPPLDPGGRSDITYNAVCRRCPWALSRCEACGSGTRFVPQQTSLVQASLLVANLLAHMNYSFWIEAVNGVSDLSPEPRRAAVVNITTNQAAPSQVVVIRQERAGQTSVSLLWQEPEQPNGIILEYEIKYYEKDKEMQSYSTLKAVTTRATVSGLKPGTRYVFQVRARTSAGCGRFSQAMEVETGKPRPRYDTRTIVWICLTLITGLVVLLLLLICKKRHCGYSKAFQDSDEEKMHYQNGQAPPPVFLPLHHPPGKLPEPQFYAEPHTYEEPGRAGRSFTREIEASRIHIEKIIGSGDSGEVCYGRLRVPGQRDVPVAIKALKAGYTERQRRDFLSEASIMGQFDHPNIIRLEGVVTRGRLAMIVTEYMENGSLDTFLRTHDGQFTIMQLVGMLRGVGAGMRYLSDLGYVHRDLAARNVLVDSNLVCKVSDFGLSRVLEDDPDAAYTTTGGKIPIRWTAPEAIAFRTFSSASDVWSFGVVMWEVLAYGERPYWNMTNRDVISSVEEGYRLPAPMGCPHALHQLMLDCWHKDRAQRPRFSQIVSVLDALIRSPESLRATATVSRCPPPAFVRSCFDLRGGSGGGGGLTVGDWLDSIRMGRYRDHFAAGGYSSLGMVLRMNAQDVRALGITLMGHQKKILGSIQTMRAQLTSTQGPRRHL
Chain of Cyclin-dependent kinase 14 (Homo sapiens) (O94921 whole entry, canonical isoform): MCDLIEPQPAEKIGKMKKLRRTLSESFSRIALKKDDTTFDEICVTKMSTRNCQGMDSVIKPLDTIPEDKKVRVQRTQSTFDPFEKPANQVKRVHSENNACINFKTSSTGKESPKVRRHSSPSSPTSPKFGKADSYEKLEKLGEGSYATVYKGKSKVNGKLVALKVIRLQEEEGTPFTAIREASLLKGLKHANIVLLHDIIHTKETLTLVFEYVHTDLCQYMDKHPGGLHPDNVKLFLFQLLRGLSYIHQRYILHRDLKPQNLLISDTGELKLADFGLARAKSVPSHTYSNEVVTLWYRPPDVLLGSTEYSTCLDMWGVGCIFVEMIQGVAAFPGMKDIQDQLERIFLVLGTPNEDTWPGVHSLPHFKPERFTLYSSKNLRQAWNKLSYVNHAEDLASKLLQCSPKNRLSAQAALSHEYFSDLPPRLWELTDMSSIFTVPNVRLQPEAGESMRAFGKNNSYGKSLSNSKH
Chain of 5-hydroxytryptamine receptor 5A (Homo sapiens) (P47898 whole entry): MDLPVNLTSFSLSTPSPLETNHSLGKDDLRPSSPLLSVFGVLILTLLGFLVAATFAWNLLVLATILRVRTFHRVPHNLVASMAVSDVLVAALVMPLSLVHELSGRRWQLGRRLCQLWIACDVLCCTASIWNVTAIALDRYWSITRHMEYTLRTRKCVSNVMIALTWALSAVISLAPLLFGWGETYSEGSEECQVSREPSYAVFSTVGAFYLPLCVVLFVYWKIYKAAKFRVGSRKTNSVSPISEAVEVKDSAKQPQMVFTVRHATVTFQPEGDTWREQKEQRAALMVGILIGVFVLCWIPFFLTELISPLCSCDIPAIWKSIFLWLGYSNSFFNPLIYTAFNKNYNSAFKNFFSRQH

## COc1cc(-c2cn([C@H]3CCc4ccccc4N(CC(F)(F)F)C3=O)nn2)ccc1-n1ccc(C)n1
[1]
  residual activity: 65%
[2]
  residual activity: 58%
[3]
  residual activity: 100%
[4]
  residual activity: 100%
[5]
  residual activity: 100%
[6]
  residual activity: 100%
[7]
  residual activity: 92%
[8]
  residual activity: 100%
[9]
  residual activity: 100%
[10]
  residual activity: 80%
[11]
  residual activity: 80%
[12]
  residual activity: 100%
[13]
  residual activity: 68%
[14]
  residual activity: 100%
[15]
  residual activity: 87%
[16]
  residual activity: 100%
[17]
  residual activity: 88%
[18]
  residual activity: 100%
[19]
  residual activity: 100%
[20]
  residual activity: 100%
[21]
  residual activity: 89%
[22]
  residual activity: 100%
[23]
  residual activity: 100%
[24]
  residual activity: 96%
[25]
  residual activity: 100%
[26]
  residual activity: 99%
[27]
  residual activity: 100%
[28]
  residual activity: 100%
[29]
  residual activity: 100%
[30]
  residual activity: 100%
[31]
  residual activity: 100%
[32]
  residual activity: 80%
[33]
  residual activity: 97%
[34]
  residual activity: 100%
[35]
  residual activity: 67%
[36]
  residual activity: 100%
[37]
  residual activity: 85%
[38]
  residual activity: 92%
[39]
  residual activity: 92%
[40]
  residual activity: 100%
[41]
  residual activity: 100%
[42]
  residual activity: 100%
[43]
  inhibition: 5.83%
[44]
  inhibition: 9.69%
[45]
  inhibition: 22%

## COc1cc(-c2cn([C@H]3CCc4c(F)cccc4N(CC(F)(F)F)C3=O)nn2)ccc1-n1cnc(C)c1
[1]
  residual activity: 79%
[2]
  residual activity: 100%
[3]
  residual activity: 100%
[4]
  residual activity: 100%
[5]
  residual activity: 98%
[6]
  residual activity: 100%
[7]
  residual activity: 100%
[8]
  residual activity: 100%
[9]
  residual activity: 100%
[10]
  residual activity: 82%
[11]
  residual activity: 99%
[12]
  residual activity: 100%
[13]
  residual activity: 100%
[14]
  residual activity: 100%
[15]
  residual activity: 100%
[16]
  residual activity: 100%
[17]
  residual activity: 100%
[18]
  residual activity: 5.8%
[19]
  residual activity: 100%
[20]
  residual activity: 100%
[21]
  residual activity: 100%
[22]
  residual activity: 93%
[23]
  residual activity: 84%
[24]
  residual activity: 100%
[25]
  residual activity: 100%
[26]
  residual activity: 100%
[27]
  residual activity: 86%
[28]
  residual activity: 79%
[29]
  residual activity: 100%
[30]
  residual activity: 93%
[31]
  residual activity: 100%
[32]
  residual activity: 78%
[33]
  residual activity: 96%
[34]
  residual activity: 100%
[35]
  residual activity: 84%
[36]
  residual activity: 90%
[37]
  residual activity: 100%
[38]
  residual activity: 100%
[39]
  residual activity: 100%
[40]
  residual activity: 100%
[41]
  residual activity: 100%
[42]
  residual activity: 100%
[43]
  inhibition: 11.5%
[44]
  inhibition: 7.61%
[45]
  inhibition: 3.33%
